A short description of the data set: Solubility of Compound A. In kind it is physicochemical. As for the experimental part: The present invention addresses the prior art issues of low bioavailability of certain drugs such as COX-2 selective inhibitors useful for the treatment of, for example, arthritis and rheumatic pain. […] Compound A, a COX-2 selective inhibitor, is a white to off-white odorless crystalline, anhydrous powder. At room temperature it is soluble in methylene chloride, and acetonitrile. […] The aqueous solubility of the drug is less than 2 µg/mL at 22 degrees Celsius at pH 6.2.

`CS(=O)(=O)c1ccc(/C(=C2\CCOC2=O)c2ccc(Br)cc2)cc1` [Compound A, (Z)-3-[1-(4-bromophenyl)-1-(4-methylsulfonylphenyl)methylidine]-dihydrofuran-2-one]: for the setting “room temperature”, the “solubility in methylene chloride, and acetonitrile” value is given as “soluble”. Besides, the solubility in water result (water) was “poorly soluble”.

The record behind these values is patent publication US20040185110A1, “Formulations of low solubility bioactive agents and processes for making the same” (priority 2002, published 2004).
